This is an account of results in patent publication US5434136A, “Treatment of motility disorders with a GNRH analog” (priority 1992, dated 1995).

Molecules are shown by their SMILES.

One test has as its system irritable bowel syndrome. To be noted: patient, three months. How it is done: The patient, a patient suffering from irritable bowel syndrome presented symptoms of nausea, vomiting, abdominal pain, and altered bowel habits. This patient was treated with lupron, 2.0 mg/day by subcutaneous injection, for a period of six months. […] Nafarelin is a GnRH analog available from SYNTEX, which differs from the natural GnRH peptide in a D-Nal (2)^6 substitution. […] Nafarelin therapy was discontinued, and treatment with Danazol, a 17-ethyltestosterone derivative known to antagonize GnRH receptors at the level of the pituitary, was begun, at 200 mg four times daily, P.O., for a period of three months.

Test [1] relates to diseases of the autonomic nervous system. Particulars: cited from earlier work; for Success of therapy: patients with mild to moderate disease symptoms; for Relief of symptoms: mild to moderate symptoms; for Relief of symptoms / Effectiveness in patients with severe symptoms: experimental drugs.

Consider `C#C[C@]1(O)CC[C@H]2[C@@H]3CCC4=Cc5oncc5C[C@]4(C)[C@H]3CC[C@@]21C` [Danazol], for which the Therapeutic effect result in the test on irritable bowel syndrome (200 mg four times daily, P.O.) is “only minimal therapeutic effect”. Consider `CC(C)C[C@H](NC(=O)[C@@H](Cc1ccc2ccccc2c1)NC(=O)[C@H](Cc1ccc(O)cc1)NC(=O)[C@H](CO)NC(=O)[C@H](Cc1c[nH]c2ccccc12)NC(=O)[C@H](Cc1c[nH]cn1)NC(=O)[C@@H]1CCC(=O)N1)C(=O)N[C@@H](CCCNC(=N)N)C(=O)N1CCC[C@H]1C(=O)NCC(N)=O` [Nafarelin], for which, in the test with irritable bowel syndrome (2.0 mg/day s.c.), the “Blood levels of FSH and LH” value was “effectively reduced their blood levels of FSH and LH”; the “Symptoms of irritable bowel disease” value is “effectively reduced the symptoms of their irritable bowel disease”. As to `CC(C[N+](C)(C)C)OC(N)=O` (stereo not drawn) [bethanechol], in test [1], the Success of therapy entry is “limited success”. Turning to `COc1cc(N)c(Cl)cc1C(=O)NC1CCN(CCCOc2ccc(F)cc2)CC1OC` (stereo not drawn) [cisapride], in test [1], the Relief of symptoms result was “limited relief of mild to moderate symptoms” and the “Effectiveness in patients with severe symptoms” value is on record as “not been effective”. Regarding `O=c1[nH]c2ccccc2n1CCCN1CCC(n2c(=O)[nH]c3cc(Cl)ccc32)CC1` [domperidone], in test [1], the Relief of symptoms entry is “limited relief of mild to moderate symptoms” and the “Effectiveness in patients with severe symptoms” value was “not been effective”.

Take `CCN(CC)CCNC(=O)c1cc(Cl)c(N)cc1OC` [metoclopramide]: the Success of therapy result in test [1] is recorded as “limited success”.
